According to patent US20210137948A1, “TREATMENT OF INFECTIONS CAUSED BY NEISSERIA GONOCOCCUS USING A HALOGENATED SALICYLANILIDE” (priority 2018, published 2021):
≈ marks a conversion by molar mass, not a printed value. Where two headings read alike, the source gives them in different places.

What was measured:
[1] = system: Acinetobacter baumannii; assay: Broth microdilution MIC testing; type: cell-based; settings: Acinetobacter baumannii MMX 1630/ATCC 19606, susceptible
Description: (§1) Broth microdilution assay: Mueller Hinton II broth (MHB II, BBL, BD, catalog no. 212322; lot no. 5257869) was used for testing most aerobes.
(§2) MIC values were determined using a broth microdilution procedure described by CLSI, see reference (1). Automated liquid handlers (Multidrop 384, Labsystems, Helsinki, Finland; Biomek 2000 and Biomek FX, Beckman Coulter, Fullerton Calif.) were used to conduct serial dilutions and liquid transfers.
(§3) The wells in Columns 2 through 12 of two standard 96-well microdilution plates (Costar 3795, Corning Inc., Corning, N.Y.) were filled with 150 μL of diluent specific to the compound tested. Three hundred microliters of each comparator and investigational drug solution (40× or 100×) was added to one well in Column 1 of the plates. The Biomek 2000 was used to complete the serial transfers through Column 11. The wells of Column 12 contained no drug and were the organism growth control wells. These panels were the “mother plates.”
(§4) Because drugs were prepared at either 40× or 100×, the “daughter plates” were loaded with 185-188 μL of the appropriate test media for the tested organism, using the Multidrop 384 or by hand. The daughter plates were prepared on the Biomek FX instrument, which transferred 2-5 μL of drug solution from each well of a mother plate to the corresponding well of each daughter plate in a single step. The wells of the daughter plates ultimately contained 185-188 μL of broth appropriate to the organism, 2-5 μL of drug solution, and 10 μL of bacterial inoculum prepared in broth.
(§5) Standardized inoculum of each organism was prepared per CLSI methods, see reference (1). The inoculum for each organism was dispensed into sterile reservoirs divided by length (Beckman Coulter), and the Biomek 2000 was used to inoculate the plates. Daughter plates were placed on the Biomek 2000 work surface in reverse orientation so that inoculation took place from low to high drug concentration. The Biomek 2000 delivered 10 μL of standardized inoculum into each well. This yielded a final cell density in the daughter plates of approximately 5×10^5 CFU/mL.
(§6) Plates were stacked 3 high, covered with a lid on the top plate, placed in plastic bags, and incubated at 35° C. for approximately 18 to 20 hr. Following incubation, the microplates were removed from the incubator and viewed from the bottom using a plate viewer. […] The MIC was read and recorded as the lowest concentration of drug that inhibited visible growth of the organism.

[2] = system: Enterobacter cloacae; assay: Broth microdilution MIC testing; type: cell-based; settings: Enterobacter cloacae MMX 6089, susceptible
Description: as §1, §2, §3, §4, §5, §6

[3] = system: Escherichia coli; assay: Broth microdilution MIC testing; type: cell-based; settings: for MIC: Escherichia coli, read-out: Minimal Inhibitory Concentration
Description: as §1, §2, §3, §4, §5, §6

[4] = system: Klebsiella pneumoniae; assay: Broth microdilution MIC testing; type: cell-based; settings: Klebsiella pneumoniae MMX 214/ATCC 13883, susceptible
Description: as §1, §2, §3, §4, §5, §6

[5] = system: Pseudomonas aeruginosa; assay: Broth microdilution MIC testing; type: cell-based; settings: Pseudomonas aeruginosa MMX 103/ATCC 27853, susceptible, QC
Description: as §1, §2, §3, §4, §5, §6

[6] = system: Stenotrophomonas maltophila; assay: Broth microdilution MIC testing; type: cell-based; settings: Stenotrophomonas maltophila MMX 4746, susceptible
Description: as §1, §2, §3, §4, §5, §6

[7] = system: N. gonorrhoeae ATCC49226/MMX 683; assay: Agar dilution MIC assay (Example 1); type: cell-based, Neisseria gonorrhoeae
Description: Neisseria gonococcus (N. gonorrhoeae) were assayed using a reference agar dilution method, see reference (2). Drug dilutions and drug-supplemented agar plates were prepared manually. Neisseria gonococcus was grown on Chocolate agar in a CO2 incubator overnight at 35° C. prior to assay. […] The MIC was read per CLSI guidelines, see reference (3).

[8] = system: cats; settings: p.o.; cited from earlier work
[9] = cited from earlier work
[10] = via the urinary tract or by enzymatic metabolism in the liver; cited from earlier work

SMILES: O=C(Nc1ccc([N+](=O)[O-])cc1Cl)c1cc(Cl)ccc1O [Niclosamide, 2′,5-dichloro-4′-nitrosalicylanilide]
- MIC ([1]; ATCC19606, read-out: Minimal Inhibitory Concentration): > 8 µg/mL
- Minimal Inhibitory Concentration [1]: > 8 µg/mL
- Minimal Inhibitory Concentration [2]: > 8 µg/mL
- MIC ([2]; read-out: Minimal Inhibitory Concentration): > 8 µg/mL
- Minimal Inhibitory Concentration ([3]; Escherichia coli MMX 102/ATCC 25922, QC strain): > 8 µg/mL
- Minimal Inhibitory Concentration ([3]; Escherichia coli MMX 120, acrAB efflux pump knockout): > 8 µg/mL
- MIC ([3]; ATCC25922): > 8 µg/mL
- MIC [3]: > 8 µg/mL
- MIC ([4]; ATCC13883, read-out: Minimal Inhibitory Concentration): > 8 µg/mL
- Minimal Inhibitory Concentration [4]: > 8 µg/mL
- MIC ([5]; ATCC27853, read-out: Minimal Inhibitory Concentration): > 8 µg/mL
- Minimal Inhibitory Concentration [5]: > 8 µg/mL
- Minimal Inhibitory Concentration [6]: > 8 µg/mL
- MIC ([6]; Stenotrophomonas sp. LMG 10879, read-out: Minimal Inhibitory Concentration): > 8 µg/mL
- MIC ([7]; ATCC49226, Neisseria gonorrhoeae MMX 683/ATCC 49226, QC, read-out: Minimal Inhibitory Concentration): 0.12 µg/mL (≈ 0.367 µM)
- Minimal Inhibitory Concentration ([7]; Neisseria gonorrhoeae MMX 683/ATCC 49226, QC): 0.12 µg/mL
- in vitro activity (in words) ([7]; against N. gonococcus (N. gonorrhoeae), Example 1 conclusion): good in vitro activity
- LD50 [8]: > 1000 mg/kg
- solubility in water [9]: poorly soluble
- clearance from the bloodstream [10]: quickly cleared
